From article PMC3418399 (Molecular microbiology, 2012)
Non-standard residues stand in square brackets, D forms with d.

How the values were obtained:
EL4-2 (CaCdr1p Q1226R) = assay: MIC, liquid microdilution; format: cell-based, Saccharomyces cerevisiae; conditions: 48 h
EL3 (CaCdr1p Q714K) = assay: MIC, liquid microdilution; format: cell-based, Saccharomyces cerevisiae; conditions: 48 h
EL4-1 (CaCdr1p Q1226K) = assay: MIC, liquid microdilution; format: cell-based, Saccharomyces cerevisiae; conditions: 48 h
[1] = test system: AD/CDR1 (Wild type CaCdr1p); assay: MIC, liquid microdilution; format: cell-based, Saccharomyces cerevisiae; conditions: 48 h
AD/pABC3 (Control) = assay: MIC, liquid microdilution; format: cell-based, Saccharomyces cerevisiae; conditions: 48 h
EL1/TM2 (CaCdr1p G547R) = assay: MIC, liquid microdilution; format: cell-based, Saccharomyces cerevisiae; conditions: 48 h
TM5 (CaCdr1p V674F) = assay: MIC, liquid microdilution; format: cell-based, Saccharomyces cerevisiae; conditions: 48 h
EL6 (CaCdr1p Q1445R) = assay: MIC, liquid microdilution; format: cell-based, Saccharomyces cerevisiae; conditions: 48 h
[2] = test system: AD/CDR1 (Wild type CaCdr1p; AD/CaCDR1B); assay: Agarose diffusion FLC chemosensitization assay; format: cell-based, Saccharomyces cerevisiae; conditions: ~6 nmole/disk, agarose diffusion, FLC 40 μg ml^−1
Cdr1p ATPase = Cdr1p ATPase (Candida albicans, UniProt P43071); assay: CaCdr1p ATPase inhibition assay; format: biochemical; conditions: read-out: IC50 Cdr1p ATPase; wild type CaCdr1p, oligomycin-sensitive ATPase, pH 7.5
Pma1p ATPase = biological target: T1, Pma1p ATPase (Saccharomyces cerevisiae, UniProt P05030); assay: Pma1p ATPase assay; format: biochemical; conditions: read-out: IC50 Pma1p ATPase; pH 7.0, 10 μM oligomycin
T1 sequence (P05030 1-918): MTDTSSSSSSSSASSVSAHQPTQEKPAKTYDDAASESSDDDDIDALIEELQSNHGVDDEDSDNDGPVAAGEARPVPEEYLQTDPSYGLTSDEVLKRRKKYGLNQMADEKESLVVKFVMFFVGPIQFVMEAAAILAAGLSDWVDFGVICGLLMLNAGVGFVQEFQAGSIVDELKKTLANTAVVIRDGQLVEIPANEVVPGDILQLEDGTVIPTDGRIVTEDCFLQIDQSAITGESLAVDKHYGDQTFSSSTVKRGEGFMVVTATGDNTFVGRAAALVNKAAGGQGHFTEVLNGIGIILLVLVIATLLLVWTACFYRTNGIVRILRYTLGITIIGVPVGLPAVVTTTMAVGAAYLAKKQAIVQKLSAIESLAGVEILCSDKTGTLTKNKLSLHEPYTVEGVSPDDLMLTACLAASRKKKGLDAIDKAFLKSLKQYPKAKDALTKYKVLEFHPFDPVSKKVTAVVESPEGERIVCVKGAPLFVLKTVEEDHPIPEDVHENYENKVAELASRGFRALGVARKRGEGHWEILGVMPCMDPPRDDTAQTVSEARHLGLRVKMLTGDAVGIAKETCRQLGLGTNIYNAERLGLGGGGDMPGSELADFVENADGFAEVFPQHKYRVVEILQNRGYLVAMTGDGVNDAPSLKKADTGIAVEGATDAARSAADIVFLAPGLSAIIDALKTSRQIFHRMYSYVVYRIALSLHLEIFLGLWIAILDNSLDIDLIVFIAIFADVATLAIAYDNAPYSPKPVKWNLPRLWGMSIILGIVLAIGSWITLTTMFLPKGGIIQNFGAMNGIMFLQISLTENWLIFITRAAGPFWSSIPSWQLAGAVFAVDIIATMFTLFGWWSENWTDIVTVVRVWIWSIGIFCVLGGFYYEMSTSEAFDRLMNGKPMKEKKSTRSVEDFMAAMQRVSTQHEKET

[3] = EL4-2, Q1226R, milbemycins and micafungin, I95, CSM pH 7.0, 30°C
[4] = EL3, Q714K, milbemycins and micafungin, I95, CSM pH 7.0, 30°C
[5] = EL4-1, Q1226K, milbemycins and micafungin, I95, CSM pH 7.0, 30°C
[6] = AD/CDR1, Wild type, milbemycins and micafungin, I95, CSM pH 7.0, 30°C
[7] = AD/pABC3, Control, milbemycins and micafungin, I95, CSM pH 7.0, 30°C
[8] = EL1/TM2, G547R, milbemycins and micafungin, I95, CSM pH 7.0, 30°C
[9] = TM5, V674F, milbemycins and micafungin, I95, CSM pH 7.0, 30°C
[10] = EL6, Q1445R, milbemycins and micafungin, I95, CSM pH 7.0, 30°C

Chain of Cdr1p ATPase (P43071 whole entry): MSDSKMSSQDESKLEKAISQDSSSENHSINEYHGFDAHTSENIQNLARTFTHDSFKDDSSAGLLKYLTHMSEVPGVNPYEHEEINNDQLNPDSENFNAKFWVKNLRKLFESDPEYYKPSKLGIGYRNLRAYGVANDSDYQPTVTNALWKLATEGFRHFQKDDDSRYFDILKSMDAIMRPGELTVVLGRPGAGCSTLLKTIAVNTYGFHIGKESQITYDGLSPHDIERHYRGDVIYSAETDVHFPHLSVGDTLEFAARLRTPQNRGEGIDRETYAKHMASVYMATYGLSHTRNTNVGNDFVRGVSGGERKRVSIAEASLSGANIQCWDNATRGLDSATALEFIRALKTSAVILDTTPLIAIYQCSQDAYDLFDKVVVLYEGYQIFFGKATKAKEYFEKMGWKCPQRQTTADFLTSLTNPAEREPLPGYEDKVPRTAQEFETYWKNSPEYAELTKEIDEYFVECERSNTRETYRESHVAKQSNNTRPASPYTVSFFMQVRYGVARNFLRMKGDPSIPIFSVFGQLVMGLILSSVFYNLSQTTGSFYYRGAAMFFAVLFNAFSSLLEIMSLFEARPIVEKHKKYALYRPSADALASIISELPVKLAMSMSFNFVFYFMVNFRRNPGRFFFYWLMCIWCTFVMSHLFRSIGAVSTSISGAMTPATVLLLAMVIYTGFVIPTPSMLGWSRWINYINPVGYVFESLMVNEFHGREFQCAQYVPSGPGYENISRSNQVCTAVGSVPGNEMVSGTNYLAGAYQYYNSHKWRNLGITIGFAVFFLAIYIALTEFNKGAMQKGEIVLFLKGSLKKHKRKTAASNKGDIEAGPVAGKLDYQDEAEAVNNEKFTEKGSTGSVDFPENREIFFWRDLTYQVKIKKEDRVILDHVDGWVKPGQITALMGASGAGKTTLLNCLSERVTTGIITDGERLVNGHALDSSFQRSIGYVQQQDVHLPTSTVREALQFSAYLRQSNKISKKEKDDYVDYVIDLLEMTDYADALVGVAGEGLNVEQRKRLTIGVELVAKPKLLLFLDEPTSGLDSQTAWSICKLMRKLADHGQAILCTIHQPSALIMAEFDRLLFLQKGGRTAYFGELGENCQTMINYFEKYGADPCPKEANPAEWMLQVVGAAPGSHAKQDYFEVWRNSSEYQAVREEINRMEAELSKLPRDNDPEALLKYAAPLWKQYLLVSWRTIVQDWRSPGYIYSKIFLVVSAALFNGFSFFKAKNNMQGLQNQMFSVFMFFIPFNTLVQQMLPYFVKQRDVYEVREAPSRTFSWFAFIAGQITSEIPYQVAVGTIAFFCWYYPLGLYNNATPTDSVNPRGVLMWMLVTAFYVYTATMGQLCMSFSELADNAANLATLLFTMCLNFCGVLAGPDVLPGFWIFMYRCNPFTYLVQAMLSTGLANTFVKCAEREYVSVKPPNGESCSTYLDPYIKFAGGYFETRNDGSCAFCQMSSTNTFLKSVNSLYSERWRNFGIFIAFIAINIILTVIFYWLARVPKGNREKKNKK

Molecule COC(=O)c1ccccc1-c1c2ccc(=N)cc-2oc2cc(N)ccc12 [Rhodamine 123] has an MIC (EL4-2 (CaCdr1p Q1226R); Saccharomyces cerevisiae, pH 7) of 200 µM, an MIC (EL3 (CaCdr1p Q714K); Saccharomyces cerevisiae, pH 7) of 200 µM and an MIC (EL4-1 (CaCdr1p Q1226K); Saccharomyces cerevisiae, pH 7) of 150 µM. It also gave an MIC ([1]; Saccharomyces cerevisiae, pH 7) of 300 µM, an MIC (AD/pABC3 (Control); Saccharomyces cerevisiae, pH 7) of 8 µM and an MIC (EL1/TM2 (CaCdr1p G547R); Saccharomyces cerevisiae, pH 7) of 150 µM. The MIC (TM5 (CaCdr1p V674F); Saccharomyces cerevisiae, pH 7) was 150 µM and the MIC (EL6 (CaCdr1p Q1445R); Saccharomyces cerevisiae, pH 7) was 200 µM.

In the case of CN1CCN(CCCN2c3ccccc3Sc3ccc(C(F)(F)F)cc32)CC1 [Trifluoperazine], the MIC (EL4-2 (CaCdr1p Q1226R); Saccharomyces cerevisiae, pH 7) is reported as 40 µM, the MIC (EL3 (CaCdr1p Q714K); Saccharomyces cerevisiae, pH 7) is reported as 40 µM and the MIC (EL4-1 (CaCdr1p Q1226K); Saccharomyces cerevisiae, pH 7) is reported as 40 µM. The MIC ([1]; Saccharomyces cerevisiae, pH 7) was 40 µM, the MIC (AD/pABC3 (Control); Saccharomyces cerevisiae, pH 7) was 5 µM and the MIC (EL1/TM2 (CaCdr1p G547R); Saccharomyces cerevisiae, pH 7) was 40 µM. For the same molecule, the MIC (TM5 (CaCdr1p V674F); Saccharomyces cerevisiae, pH 7) was 20 µM and the MIC (EL6 (CaCdr1p Q1445R); Saccharomyces cerevisiae, pH 7) was 80 µM.

C[C@@H](c1ncncc1F)[C@](O)(Cn1cncn1)c1ccc(F)cc1F [Voriconazole] was tested, and the MIC (EL4-2 (CaCdr1p Q1226R); Saccharomyces cerevisiae, pH 7) was 6 µg/mL, the MIC (EL3 (CaCdr1p Q714K); Saccharomyces cerevisiae, pH 7) was 8 µg/mL and the MIC (EL4-1 (CaCdr1p Q1226K); Saccharomyces cerevisiae, pH 7) was 2.5 µg/mL. The MIC ([1]; Saccharomyces cerevisiae, pH 7) was 8 µg/mL, the MIC (AD/pABC3 (Control); Saccharomyces cerevisiae, pH 7) was 0.156 µg/mL and the MIC (EL1/TM2 (CaCdr1p G547R); Saccharomyces cerevisiae, pH 7) was 2.5 µg/mL. For the same molecule, the MIC (TM5 (CaCdr1p V674F); Saccharomyces cerevisiae, pH 7) was 4 µg/mL and the MIC (EL6 (CaCdr1p Q1445R); Saccharomyces cerevisiae, pH 7) was 10 µg/mL.

For D-NH2-FFKWQR(Mtr)KK-CONH2, the “chemosensitization of cells overexpressing CaCdr1p to FLC” value [2] was “chemosensitizing activity”.

Work on D-NH2-FFKWQRRR-CONH2 yielded an IC50 (Cdr1p ATPase) of 2000 nM.

Molecule “D-NH2-FFKWQRRR-CONH2 (H-[dF][dF][dK][dW][dQ][dR][dR][dR]-NH2)” has an IC50 (Pma1p ATPase) of 5000 nM.

In the case of D-NH2-FFKWQRRR-CONH2 + Mtr [RC21], the IC50 (Cdr1p ATPase) is reported as 1300 nM.

Enniatin was tested, and the MIC (EL4-2 (CaCdr1p Q1226R); EL4-2, Q1226R, cycloheximide, enniatin and FK506, CSM pH 7.0, 30°C) was 4 µg/mL, the MIC (EL3 (CaCdr1p Q714K); EL3, Q714K, cycloheximide, enniatin and FK506, CSM pH 7.0, 30°C) was 4 µg/mL and the MIC (EL4-1 (CaCdr1p Q1226K); EL4-1, Q1226K, cycloheximide, enniatin and FK506, CSM pH 7.0, 30°C) was 4 µg/mL. It also gave an MIC ([1]; AD/CDR1, Wild type, cycloheximide, enniatin and FK506, CSM pH 7.0, 30°C) of 4 µg/mL, an MIC (AD/pABC3 (Control); AD/pABC3, Control, cycloheximide, enniatin and FK506, CSM pH 7.0, 30°C) of 4 µg/mL and an MIC (EL1/TM2 (CaCdr1p G547R); EL1/TM2, G547R, cycloheximide, enniatin and FK506, CSM pH 7.0, 30°C) of 4 µg/mL. It also gave an MIC (TM5 (CaCdr1p V674F); TM5, V674F, cycloheximide, enniatin and FK506, CSM pH 7.0, 30°C) of 4 µg/mL and an MIC (EL6 (CaCdr1p Q1445R); EL6, Q1445R, cycloheximide, enniatin and FK506, CSM pH 7.0, 30°C) of 4 µg/mL.

In the case of Milbemycin α25, the MIC (EL4-2 (CaCdr1p Q1226R); [3]) is reported as greater than 8 µg/mL, the MIC (EL3 (CaCdr1p Q714K); [4]) is reported as greater than 8 µg/mL and the MIC (EL4-1 (CaCdr1p Q1226K); [5]) is reported as 8 µg/mL. For the same molecule, the MIC [1, 6] was 8 µg/mL, the MIC (AD/pABC3 (Control); [7]) was 8 µg/mL and the MIC (EL1/TM2 (CaCdr1p G547R); [8]) was 8 µg/mL. For the same molecule, the MIC (TM5 (CaCdr1p V674F); [9]) was greater than 8 µg/mL and the MIC (EL6 (CaCdr1p Q1445R); [10]) was greater than 8 µg/mL.

In the case of Milbemycin α26, the MIC (EL4-2 (CaCdr1p Q1226R); [3]) is reported as 8 µg/mL, the MIC (EL3 (CaCdr1p Q714K); [4]) is reported as 8 µg/mL and the MIC (EL4-1 (CaCdr1p Q1226K); [5]) is reported as 8 µg/mL. It also gave an MIC [1, 6] of 8 µg/mL, an MIC (AD/pABC3 (Control); [7]) of 8 µg/mL and an MIC (EL1/TM2 (CaCdr1p G547R); [8]) of 8 µg/mL. It also gave an MIC (TM5 (CaCdr1p V674F); [9]) of 8 µg/mL and an MIC (EL6 (CaCdr1p Q1445R); [10]) of 8 µg/mL.

For Milbemycin β9, the MIC (EL4-2 (CaCdr1p Q1226R); [3]) was greater than 8 µg/mL, the MIC (EL3 (CaCdr1p Q714K); [4]) was 8 µg/mL and the MIC (EL4-1 (CaCdr1p Q1226K); [5]) was greater than 8 µg/mL. The MIC [1, 6] was greater than 8 µg/mL, the MIC (AD/pABC3 (Control); [7]) was 8 µg/mL and the MIC (EL1/TM2 (CaCdr1p G547R); [8]) was greater than 8 µg/mL. For the same molecule, the MIC (TM5 (CaCdr1p V674F); [9]) was greater than 8 µg/mL and the MIC (EL6 (CaCdr1p Q1445R); [10]) was greater than 8 µg/mL.
